Consider two compounds from patent US20260240740A1, “MULTI-PHOTOPROTECTIVE COMPOUNDS AND USES THEREOF” (SKINOSIVE, priority 2022, published 2026).

A value given as a limit tells only on which side of the number the result lay.

Series [1] can be described thus: UV absorbance profile: λmax in solvents, FLUOstar plate reader. The format is physicochemical. The conditions noted are these: for λmax double peak, first peak / λmax double peak, second peak: 50 μM; for λmax absorbance shift in UVB versus the mix of BEMT-OCR: same molar concentration, same shift in Dottisol. The method, then:
Compound #2 (OOD), Univul A plus (DHHB)+Octocrylene (OCR) were dissolved in a solvent at the same concentration (125 μM).
Compound #4 (OHD), Univul A plus (DHHB)+Octocrylene (OCR) were dissolved in a solvent at the same concentration (125 μM).
Compound #5 (BOO) and BEMT (6,6′-(6-(4-methoxyphenyl)-1,3,5-triazine-2,4-diyl)bis(3-((2-ethylhexyl)oxy)phenol)=Tinosorb S)+Octocrylene (OCR) were dissolved in a solvent at the same concentration (50 μM).
UV Absorbance Profil of Compound #6 (BOO-OM) Compound #6 (BOO-OM) and BEMT (6,6′-(6-(4-methoxyphenyl)-1,3,5-triazine-2,4-diyl)bis(3-((2-ethylhexyl)oxy)phenol)=Tinosorb S)+Octocrylene (OCR) were dissolved in a solvent at the same concentration (50 μM).

Series [2] in a line: Photostability after UV irradiation, absorbance spectra. The format is physicochemical. The conditions noted are these: Dubdis. The method, then: (§1) Compound #2 (OOD), Univul A plus (DHHB), Octocrylene (OCR), and Univul A plus (DHHB)+Octocrylene (OCR) were dissolved in Ethanol at 1 mM and were irradiated at 2000 and 4000 J/dm2 for 1 h and 2 h in a 24-well plate, respectively, in 2 replicates (1 replicate for HPLC and 1 replicate for absorbance spectra).
(§2) Compound #4 (OHD), Univul A plus (DHHB), Octocrylene (OCR), and Univul A plus (DHHB)+Octocrylene (OCR) were dissolved in Ethanol at 1 mM and were irradiated at 2000 and 4000 J/dm2 for 1 h and 2 h in a 24-well plate, respectively, in 2 replicates (1 replicate for HPLC and 1 replicate for absorbance spectra).
(§3) Compound #5 (BOO), Tinosorb S (BEMT), and Octocrylene (OCR) were dissolved in Dubdis at 2 mM and were irradiated at 4000 J/dm2 for 2 h in a 24-well plate, respectively, in 2 replicates (1 replicate for HPLC and 1 replicate for absorbance spectra).

Series [3] is described as follows: Photostability after UV irradiation, HPLC. The series is classed as physicochemical. The conditions noted are these: Dubdis. The method, then: as §1, §2, §3
The next series relates to pig skin. The series is described as follows: UV protection ex vivo on pig skin by autofluorescence quenching. The conditions noted are these: for UVB protection after ethanol wash compared to the initial protection before washing: pig skin. The method, then:
UV Protection Performance of Compound #2 (OOD) UVB and UVA protections have been assessed ex vivo on pig skin by measuring the autofluorescence quenching. OOD (Compound #2), the mix of DHHB+OCR were solubilized at the same molar concentration in Dottisol (isosorbide dimethyl ether), covered 6.25 cm2 skin square and incubated 20 min or 2 hours at room temperatures, and then 7 mm skin punches were cut and placed in a black 96-well plate. UVB and UVA protections were measured after respectively an excitation at 300 nm and 355 nm and a fluorescence emission was read at 460 nm. DMSO was added on the pig skin before the reading of the residual fluorescence.
UVB and UVA protections have been assessed ex vivo on pig skin by measuring the autofluorescence quenching. BOO (Compound #5) and the mix of BEMT+OCR were solubilized at the same molar concentration in Dottisol (isosorbide dimethyl ether), covered 6.25 cm^2 skin square and incubated 4 hours at 34° C., washed or not with 10 mL Ethanol for 5 min, and then 7 mm diameter skin punches were cut and placed in a black 96-well plate. UVB and UVA protections were measured after respectively an excitation at 300 nm and 355 nm and a fluorescence emission was read at 460 nm.
UVB protection has been assessed ex vivo on pig skin by measuring the autofluorescence quenching. BOO (Compound #5), BOO-OM (Compound #6) and the mix of BEMT+OCR were solubilized at the same molar concentration in DMDA (dimethyl capramide), covered 6.25 cm2 skin square and incubated 2 hours at 34° C., washed or not with 10 mL Ethanol for 5 min, and then 7 mm diameter skin punches were cut and placed in a black 96-well plate. UVB protection was measured after respectively an excitation at 300 nm and a fluorescence emission was read at 460 nm.

For series [4], the system named is thiolated polylysine matrix. The series is described as follows: Bio adhesion on thiolated polylysine matrix (UV absorbance at 310 nm after ethanol washes). The conditions noted are these: overnight incubation in ethanol/PBS (90%/10%), washed 10 times with ethanol. The method, then:
(§4) Polylysine and Polylysine enriched in SH by thiolation of primary amines using Traut's reagent were used for coating 96-well microplates. UV filters (BOO and BOO-OM) were incubated overnight under orbital agitation on the different matrices (n=3 for each condition) (uncoated wells were used as negative controls), in an ethanol/PBS (90%/10%) solution. After incubation, each microplate well was thoroughly washed 10 times with ethanol, before measuring UV absorbance. Whole UV/Visible absorbance spectrum from 220 to 1000 nm were measured in the center of each microplate well. In addition, specific UV absorbance at 310 nm was measured by matrix scan over the whole the well as a 10×10 matrix.

Series [5] is described as follows: Solubility in sunscreen solvents. The conditions noted are these: 50° C. The series is classed as physicochemical. On the procedure:
Compound #2 (OOD) and a sunscreen solvent were weighed in a Becher. The Becher was placed on a magnetic stir plate, heated up to 50° C., and the solution was vigorously mixed with a bar magnet.
Compound #4 (OHD) and a sunscreen solvent were weighed in a Becher. The Becher was placed on a magnetic stir plate, heated up to 50° C., and the solution was vigorously mixed with a bar magnet.
Compound #5 (BOO) and a sunscreen solvent were weighed in a Becher. The Becher was placed on a magnetic stir plate, heated up to 50° C., and the solution was vigorously mixed with a bar magnet.
Compound #6 (BOO-OM) and a sunscreen solvent were weighed in a Becher. The Becher was placed on a magnetic stir plate, heated up to 50° C., and the solution was vigorously mixed with a bar magnet.

For series [6], the system named is polylysine matrix (non thiolated). The series is described as follows: Bio adhesion on polylysine matrix (non thiolated). The conditions noted are these: overnight incubation in ethanol/PBS (90%/10%), washed 10 times with ethanol. The method, then: as §4
Where [7] appears, read: pig skin autofluorescence after 2 h of incubation, DMDA (dimethyl capramide), Mean +/− SD, N = 3.
[8] abbreviates: pig skin autofluorescence after 2 h of incubation, DMDA, 10 mL Ethanol 5 min, Mean +/− SD, N = 3.
Where [9] appears, read: pig skin autofluorescence after 4 h of incubation, Dottisol, 10 mL Ethanol 5 min, Mean +/− SD, N = 3.
Where [10] appears, read: pig skin autofluorescence after 4 h of incubation, Dottisol, Mean +/− SD, N = 3.

As for `CCCCC(CC)COc1ccc(-c2nc(-c3ccc(OC)cc3)nc(-c3ccc(OCC(CC)CCCC)cc3OCCCCCCCCNC(=O)C(C#N)=C(c3ccccc3)c3ccccc3)n2)c(O)c1` (centres unmarked) [Compound #5, 2-cyano-N-(8-(5-((2-ethylhexyl)oxy)-2-(4-(4-((2-ethylhexyl)oxy)-2-hydroxyphenyl)-6-(4-methoxyphenyl)-1,3,5-triazin-2-yl)phenoxy)octyl)-3,3-diphenylacrylamide], in series [1] (Dottisol), the “λmax double peak, first peak” value turned out to be 301 nm and the “λmax double peak, second peak” value was found to be 324 nm. In addition, in series [1] (Dubdis), the “λmax double peak, first peak” value came to 301 nm; the “λmax double peak, second peak” value turned out to be 323 nm; the “λmax absorbance shift in UVB versus the mix of BEMT-OCR” value is 10 nm. In series [2] (2 mM), the “Absorbance peak, Without UV irradiation, first or only peak” value is reported as 301 nm and the “Absorbance peak, Without UV irradiation, second peak” value turned out to be 323 nm. Besides, in series [2] (2 mM, 2 h), the “Absorbance peak, Irradiation 4000 J/dm2, first or only peak” value was 301 nm and the “Absorbance peak, Irradiation 4000 J/dm2, second peak” value is 324 nm. In addition, the “Absorbance peak, Irradiation 4000 J/dm2, second peak” value in series [2] (2 mM, 2 h, listed as BOO) is on record as 323 nm. Moreover, the “Effect of irradiation on UV absorbance profiles and λmax” value in series [2] (UVB and UVA range, 4000 J/dm2 for 2 hours) is listed as “did not modify”. In addition, in series [3], the “degradation observed by HPLC after irradiation” value was “No degradation”; the “purity by HPLC after irradiation” value is given as 98.13%; the “purity by HPLC, non-irradiated” value amounted to 98.88%. For the same compound, the “UVA and UVB protections of the pig skin compared to the mix OCR+BEMT” value in the series on pig skin (4 h incubation, Dottisol) was “similar”. Further, the “UVB Fluorescence (Ex300/Em460) No Wash” value in the series with pig skin (setting [7]) is 42968 +/− 3131. In the series on pig skin (setting [8]), the “UVB Fluorescence (Ex300/Em460) EtOH Wash” value is 152417 +/− 17275. Also, in the series on pig skin (setting [9]), the “UVA Fluorescence (Ex355/Em460) EtOH Wash” value is 217235 +/− 4204 and the “UVB Fluorescence (Ex300/Em460) EtOH Wash” value was 205205 +/− 3116. Further, in the series on pig skin (setting [10]), the “UVA Fluorescence (Ex355/Em460) No Wash” value is 49672 +/− 9882 and the “UVB Fluorescence (Ex300/Em460) No Wash” value is recorded as 49009 +/− 9100. In addition, the “UVB protection after ethanol wash compared to the initial protection before washing” value with pig skin (2 h incubation, DMDA) is listed as “decreased three times”. In series [4], the “bio adhesion, UV absorbance at 310 nm” value is reported as “did not show a bio adhesion”.

With `CCCCC(CC)COc1ccc(-c2nc(-c3ccc(OC)cc3)nc(-c3ccc(OCC(CC)CCCC)cc3OCCCCCCCCN3C(=O)C=CC3=O)n2)c(OCCCCCCCCNC(=O)C(C#N)=C(c2ccccc2)c2ccccc2)c1` (centres unmarked) [Compound #6, 2-cyano-N-(8-(2-(4-(2-((8-(2,5-dioxo-2,5-dihydro-1H-pyrrol-1-yl)octyl)oxy)-4-((2-ethylhexyl)oxy)phenyl)-6-(4-methoxyphenyl)-1,3,5-triazin-2-yl)-5-((2-ethylhexyl)oxy)phenoxy)octyl)-3,3-diphenylacrylamide], the “λmax double peak, first peak” value came out at 290 nm in series [1] (Dottisol) and 289 nm in series [1] (Dubdis). Moreover, the entries for the “λmax double peak, second peak” value in series [1] (Dottisol) and in series [1] (Dubdis) were 307 nm and 309 nm, respectively. Besides, the “λmax absorbance shift in UVB versus the mix of BEMT-OCR” value in series [1] (Dubdis) was at least 20 nm. The soluble at ratio is reported as 1/10 in series [5] (Dimethyl capramide (Spectrasolv DMDA)), “½” in series [5] (Dottisol (dimethyl isosorbide)) and “½” in series [5] (Dubdis (Diisopropyl sebacate)). In addition, the “UVB protection of the pig skin compared to the mix OCR+BEMT” value in the series with pig skin (2 h incubation, DMDA) is “similar”. Further, the “bio adhesive (pig skin, ethanol wash)” value in the series on pig skin (conclusion from UVB protection after ethanol wash) is recorded as “is bio adhesive”. Moreover, in the series with pig skin (setting [7]), the “UVB Fluorescence (Ex300/Em460) No Wash” value is 40608 +/− 3466. Further, the “UVB Fluorescence (Ex300/Em460) EtOH Wash” value in the series with pig skin (setting [8]) is listed as 108875 +/− 4401. In the series with pig skin (2 h incubation, DMDA), the “UVB protection after ethanol wash compared to the initial protection before washing” value is on record as “reduced twice”. Moreover, the “bio adhesion, UV absorbance at 310 nm” value in series [4] is on record as “showed a bio adhesion”. Moreover, the bioadhesion entry in series [6] is “no bioadhesion”.
